Consider 16 molecules from patent US11034672B1, “Tyrosine kinase inhibitor compositions, methods of making and methods of use” (Black Diamond Therapeutics, Inc., priority 2018, dated 2021).

Common to all, as to format: cell-based
Assay [1] has as its target T1, EGFR WT (Homo sapiens, UniProt P00533). As to the kind of experiment: Activity for inhibiting EGFR (Table A), EGFR WT. The settings on record: read-out: EGFR WT, potency code (IC50).
For assay [2], the target named is T2, HER2 YVMA (Homo sapiens, UniProt P04626, INS775YVMA).
T2 construct: expressed in transfected cells; host or cells: BaF3 (murine pro-B)
Put plainly: Activity for inhibiting HER2 (Table B), HER2 YVMA. The conditions noted are these: read-out: HER2 YVMA, potency code (IC50). Here is the method: (§1) EC50 values were determined with the same application.

In assay [3] the target is T3, HER2 S310F (Homo sapiens, UniProt P04626, S310F).
T3 construct: expressed in transfected cells; host or cells: BaF3 (murine pro-B)
Put plainly: BaF3 cell proliferation assay, HER2 S310F (Table B). The conditions noted are these: potency code, 3 days, CellTiterGlo, read-out: HER2 S310F (Activity for Inhibiting HER2). (Cellular ATP, detected with luciferase, serves as a proxy for viable cell number.)

In assay [4] the target is T4, EGFR V3 (Homo sapiens, UniProt P00533, DELINS30-297G).
T4 construct: expressed in transfected cells; host or cells: BaF3 (murine pro-B), retroviral pMXs-IRES-Blasticidin
As to the kind of experiment: Activity for inhibiting EGFR (Table A), EGFR V3 (EGFR-Viii). The conditions noted are these: read-out: EGFR V3, potency code (IC50).

The target of assay [5] is T3, HER2 S310F. As to the kind of experiment: Activity for inhibiting HER2 (Table B), HER2 S310F. The conditions noted are these: read-out: HER2 S310F, potency code (IC50). Here is the method:
as §1

Assay [6] deals with T4, EGFR V3. Put plainly: BaF3 cell proliferation assay, EGFR V3 (Table A). The settings on record: potency code, 3 days, CellTiterGlo, read-out: EGFR V3 (Activity for Inhibiting EGFR). Summed up: (§2)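 Mouse BaF3 cells were retrovirally transduced (pMXs-IRES-Blasticidin, VSV-G pseudotyped virus from HEK 293T) with the human EGFR or HER2 variant, selected in 10 μg/ml Blasticidin for one week, then made IL-3 independent. EC50 values come from proliferation of these lines.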

Assay [7] concerns the target T1, EGFR WT. As to the kind of experiment: BaF3 cell proliferation assay, EGFR WT (Table A). The settings on record: potency code, 3 days, CellTiterGlo, read-out: EGFR WT (Activity for Inhibiting EGFR). Put shortly: as §2
Assay [8] has as its target T2, HER2 YVMA. As to the kind of experiment: BaF3 cell proliferation assay, HER2 YVMA (Table B). The conditions noted are these: potency code, 3 days, CellTiterGlo, read-out: HER2 YVMA (Activity for Inhibiting HER2).

T1 sequence (P00533 25-1210 N540K): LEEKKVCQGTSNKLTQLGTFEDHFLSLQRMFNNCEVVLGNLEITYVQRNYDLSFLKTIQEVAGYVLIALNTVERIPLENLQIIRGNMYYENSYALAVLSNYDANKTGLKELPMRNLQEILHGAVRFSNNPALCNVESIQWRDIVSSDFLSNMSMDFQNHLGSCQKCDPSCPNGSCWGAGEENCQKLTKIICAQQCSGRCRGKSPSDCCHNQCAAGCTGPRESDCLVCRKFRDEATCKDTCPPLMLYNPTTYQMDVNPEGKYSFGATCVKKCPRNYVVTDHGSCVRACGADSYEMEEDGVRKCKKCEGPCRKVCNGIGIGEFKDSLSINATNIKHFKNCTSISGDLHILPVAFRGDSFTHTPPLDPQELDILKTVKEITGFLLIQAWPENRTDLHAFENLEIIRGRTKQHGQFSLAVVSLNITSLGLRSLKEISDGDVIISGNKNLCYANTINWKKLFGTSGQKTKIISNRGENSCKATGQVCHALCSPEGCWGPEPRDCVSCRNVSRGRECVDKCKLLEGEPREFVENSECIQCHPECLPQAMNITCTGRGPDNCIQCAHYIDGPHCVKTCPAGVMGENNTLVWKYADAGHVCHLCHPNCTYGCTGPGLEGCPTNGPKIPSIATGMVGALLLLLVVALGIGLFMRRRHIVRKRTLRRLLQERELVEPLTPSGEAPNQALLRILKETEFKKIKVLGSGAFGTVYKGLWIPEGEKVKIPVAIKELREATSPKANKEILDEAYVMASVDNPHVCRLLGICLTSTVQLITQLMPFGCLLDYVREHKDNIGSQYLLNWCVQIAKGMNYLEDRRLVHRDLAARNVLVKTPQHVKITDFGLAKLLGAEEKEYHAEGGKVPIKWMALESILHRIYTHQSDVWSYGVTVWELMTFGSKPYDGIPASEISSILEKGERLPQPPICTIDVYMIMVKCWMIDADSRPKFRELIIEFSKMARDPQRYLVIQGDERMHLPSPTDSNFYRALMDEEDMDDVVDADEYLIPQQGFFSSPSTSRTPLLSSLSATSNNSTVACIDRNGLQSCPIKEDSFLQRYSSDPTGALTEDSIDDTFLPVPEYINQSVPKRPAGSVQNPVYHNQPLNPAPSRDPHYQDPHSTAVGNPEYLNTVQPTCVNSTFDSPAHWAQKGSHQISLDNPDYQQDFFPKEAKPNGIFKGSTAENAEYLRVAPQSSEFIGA
T3 sequence (P04626 23-1255 S310F): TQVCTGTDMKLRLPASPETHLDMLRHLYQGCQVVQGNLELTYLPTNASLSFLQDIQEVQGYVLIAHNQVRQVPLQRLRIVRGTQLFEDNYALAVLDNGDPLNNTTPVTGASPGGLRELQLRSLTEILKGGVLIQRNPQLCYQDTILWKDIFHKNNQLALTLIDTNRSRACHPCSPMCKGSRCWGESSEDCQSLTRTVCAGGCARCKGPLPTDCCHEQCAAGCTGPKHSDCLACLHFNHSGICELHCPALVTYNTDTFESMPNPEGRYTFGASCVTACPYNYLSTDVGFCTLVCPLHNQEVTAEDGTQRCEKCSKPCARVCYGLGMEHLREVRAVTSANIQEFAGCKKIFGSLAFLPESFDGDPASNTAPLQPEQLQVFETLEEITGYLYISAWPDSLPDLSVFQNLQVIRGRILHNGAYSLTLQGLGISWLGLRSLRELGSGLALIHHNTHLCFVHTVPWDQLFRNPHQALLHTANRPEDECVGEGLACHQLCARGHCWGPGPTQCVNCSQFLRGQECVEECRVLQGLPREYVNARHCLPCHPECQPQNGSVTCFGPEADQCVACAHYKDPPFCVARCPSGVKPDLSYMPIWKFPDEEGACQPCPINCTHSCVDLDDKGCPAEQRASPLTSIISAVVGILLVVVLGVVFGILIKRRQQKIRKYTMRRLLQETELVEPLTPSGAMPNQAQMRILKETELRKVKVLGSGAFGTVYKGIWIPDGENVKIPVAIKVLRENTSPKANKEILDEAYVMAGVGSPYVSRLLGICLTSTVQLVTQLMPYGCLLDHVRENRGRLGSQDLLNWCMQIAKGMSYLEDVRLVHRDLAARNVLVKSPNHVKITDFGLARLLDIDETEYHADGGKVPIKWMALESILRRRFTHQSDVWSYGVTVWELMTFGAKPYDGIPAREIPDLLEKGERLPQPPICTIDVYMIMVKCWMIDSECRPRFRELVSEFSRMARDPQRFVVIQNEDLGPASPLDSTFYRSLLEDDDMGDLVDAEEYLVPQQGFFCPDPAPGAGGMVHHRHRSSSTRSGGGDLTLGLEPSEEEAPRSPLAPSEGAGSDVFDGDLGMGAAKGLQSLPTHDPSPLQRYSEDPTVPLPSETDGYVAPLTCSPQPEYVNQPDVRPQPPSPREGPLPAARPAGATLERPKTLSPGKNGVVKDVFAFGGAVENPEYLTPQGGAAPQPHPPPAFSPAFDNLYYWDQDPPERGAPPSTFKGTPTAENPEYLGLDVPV
T2 sequence (P04626 with tags, fused parts or gaps INS775YVMA): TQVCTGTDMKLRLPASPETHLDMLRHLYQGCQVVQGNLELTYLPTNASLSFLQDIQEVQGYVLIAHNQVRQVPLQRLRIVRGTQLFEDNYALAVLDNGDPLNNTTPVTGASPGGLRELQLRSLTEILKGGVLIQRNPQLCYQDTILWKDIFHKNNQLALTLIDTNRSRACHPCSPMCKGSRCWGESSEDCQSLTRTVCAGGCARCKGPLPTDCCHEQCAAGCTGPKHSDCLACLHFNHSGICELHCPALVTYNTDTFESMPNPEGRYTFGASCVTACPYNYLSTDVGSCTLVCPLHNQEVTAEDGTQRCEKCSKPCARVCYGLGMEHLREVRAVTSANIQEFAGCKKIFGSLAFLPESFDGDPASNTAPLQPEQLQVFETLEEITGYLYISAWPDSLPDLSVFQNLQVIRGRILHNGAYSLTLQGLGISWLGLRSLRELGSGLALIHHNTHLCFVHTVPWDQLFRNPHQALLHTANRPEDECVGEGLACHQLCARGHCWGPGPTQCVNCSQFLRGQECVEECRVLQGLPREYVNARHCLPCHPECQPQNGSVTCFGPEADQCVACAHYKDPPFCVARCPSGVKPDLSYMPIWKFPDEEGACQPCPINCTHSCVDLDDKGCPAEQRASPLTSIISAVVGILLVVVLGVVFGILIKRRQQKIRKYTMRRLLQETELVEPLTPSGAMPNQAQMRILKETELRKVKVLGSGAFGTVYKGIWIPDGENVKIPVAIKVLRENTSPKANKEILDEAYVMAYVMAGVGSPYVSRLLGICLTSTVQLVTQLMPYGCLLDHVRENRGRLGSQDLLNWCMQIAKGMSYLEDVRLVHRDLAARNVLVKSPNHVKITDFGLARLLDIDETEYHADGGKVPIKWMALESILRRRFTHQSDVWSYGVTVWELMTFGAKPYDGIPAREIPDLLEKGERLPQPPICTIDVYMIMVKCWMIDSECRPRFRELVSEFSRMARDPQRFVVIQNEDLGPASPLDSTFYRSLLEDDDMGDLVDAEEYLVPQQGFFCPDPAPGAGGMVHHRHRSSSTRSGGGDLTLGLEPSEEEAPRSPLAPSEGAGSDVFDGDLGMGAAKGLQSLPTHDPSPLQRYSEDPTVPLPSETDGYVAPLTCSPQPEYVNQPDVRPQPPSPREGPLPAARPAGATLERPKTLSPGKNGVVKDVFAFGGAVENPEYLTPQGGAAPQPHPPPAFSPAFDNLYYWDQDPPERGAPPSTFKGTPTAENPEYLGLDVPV
T4 sequence (P00533 with tags, fused parts or gaps DELINS30-297G): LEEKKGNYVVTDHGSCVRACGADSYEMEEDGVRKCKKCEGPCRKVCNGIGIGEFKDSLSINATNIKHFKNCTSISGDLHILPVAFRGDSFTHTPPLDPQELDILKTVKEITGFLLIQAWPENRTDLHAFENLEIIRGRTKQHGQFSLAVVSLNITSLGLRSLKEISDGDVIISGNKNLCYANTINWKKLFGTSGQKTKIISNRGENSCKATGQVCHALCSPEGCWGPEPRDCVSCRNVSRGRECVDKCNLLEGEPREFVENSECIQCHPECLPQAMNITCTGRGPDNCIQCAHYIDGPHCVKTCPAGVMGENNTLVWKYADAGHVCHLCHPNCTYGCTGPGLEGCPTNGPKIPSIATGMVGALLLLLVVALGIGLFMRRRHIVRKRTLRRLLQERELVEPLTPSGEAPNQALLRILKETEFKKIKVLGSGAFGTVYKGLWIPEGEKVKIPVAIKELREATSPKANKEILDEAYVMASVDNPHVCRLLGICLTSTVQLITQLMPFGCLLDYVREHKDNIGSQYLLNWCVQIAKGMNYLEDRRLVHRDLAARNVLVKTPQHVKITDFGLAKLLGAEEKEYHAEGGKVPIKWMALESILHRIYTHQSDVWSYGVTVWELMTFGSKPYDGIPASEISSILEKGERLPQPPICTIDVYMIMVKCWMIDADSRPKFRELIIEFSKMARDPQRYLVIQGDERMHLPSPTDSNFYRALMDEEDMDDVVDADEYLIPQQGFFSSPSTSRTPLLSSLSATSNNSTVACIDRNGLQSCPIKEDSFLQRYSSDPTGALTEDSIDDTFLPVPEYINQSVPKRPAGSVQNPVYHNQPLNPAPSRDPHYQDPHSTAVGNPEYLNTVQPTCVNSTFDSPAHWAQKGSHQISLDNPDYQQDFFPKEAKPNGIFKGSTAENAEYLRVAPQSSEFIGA

In the case of `C=CC(=O)Nc1cc2c(Nc3ccc(OCc4cccc(C)n4)c(Cl)c3)ncnc2cc1OCCN1CCOCC1` [compound 128], the IC50 on EGFR WT [1] was 500 to 1000 nM; at HER2 YVMA [2], 300 to 500 nM; on HER2 S310F [3] it was 100 to 200 nM; on EGFR V3 [4] it was 100 to 200 nM; on HER2 S310F [5] it was 100 to 200 nM; at EGFR V3 [6], 100 to 200 nM. Further, the IC50 on EGFR WT [7] was 500 to 1000 nM; on HER2 YVMA [8] it was 300 to 500 nM.

For `C=CC(=O)Nc1cc2c(Nc3ccc(OCc4cccc(C)n4)c(Cl)c3)ncnc2cc1OCCCN1CCOCC1` [compound 129], the IC50 fell in the range of 500 to 1000 nM at EGFR WT [1]; 100 to 200 nM on HER2 YVMA [2]; 30 to 50 nM on HER2 S310F [3]; 100 to 200 nM at EGFR V3 [4]; 30 to 50 nM on HER2 S310F [5]; 100 to 200 nM at EGFR V3 [6]. In addition, the IC50 on EGFR WT [7] was in the range of 500 to 1000 nM; on HER2 YVMA [8], 100 to 200 nM.

As to `C=CC(=O)Nc1cc2c(Nc3ccc(OCc4cccc(F)c4)c(Cl)c3)ncnc2cc1OCCN1CCN(C)CC1` [compound 130], the IC50 on EGFR WT [1] was 200 to 300 nM; at HER2 YVMA [2] it was 300 to 500 nM; at HER2 S310F [3], 30 to 50 nM; at EGFR V3 [4] it was 100 to 200 nM; on HER2 S310F [5], 30 to 50 nM; at EGFR V3 [6], 100 to 200 nM. In addition, the IC50 on EGFR WT [7] is 200 to 300 nM; at HER2 YVMA [8], 300 to 500 nM.

On to `C=CC(=O)Nc1cc2c(Nc3cc(Cl)c(OCc4cccc(F)c4)cc3F)ncnc2cc1OCCCN1CC(OC)C1` [compound 131], for which the IC50 on EGFR WT [1] lay in the range of 200 to 300 nM; on HER2 YVMA [2] it was 300 to 500 nM; at HER2 S310F [3], 50 to 100 nM; on EGFR V3 [4], 200 to 300 nM; at HER2 S310F [5], 50 to 100 nM; on EGFR V3 [6] it was 100 to 200 nM. Further, the IC50 lay in the range of 200 to 300 nM on EGFR WT [7] and 300 to 500 nM at HER2 YVMA [8].

As to `C=CC(=O)Nc1cc2c(Nc3ccc(OCc4cccc(C)n4)c(Cl)c3)ncnc2cc1OCCN1CC2CCC(C1)O2` [compound 132], the IC50 on EGFR WT [1] is greater than 1000 nM; on HER2 YVMA [2], 500 to 1000 nM; at HER2 S310F [3], 300 to 500 nM; at EGFR V3 [4] it was 300 to 500 nM; on HER2 S310F [5] it was 300 to 500 nM; on EGFR V3 [6], 300 to 500 nM. Further, the IC50 at EGFR WT [7] is greater than 1000 nM; on HER2 YVMA [8], 500 to 1000 nM.

In the case of `C=CC(=O)Nc1cc2c(Nc3cc(Cl)c(OCc4cccc(F)c4)cc3F)ncnc2cc1O[C@@H]1CCN(C)C1` [compound 133], the IC50 at EGFR WT [1] was 200 to 300 nM; on HER2 YVMA [2], 500 to 1000 nM; at HER2 S310F [3] it was 50 to 100 nM; on EGFR V3 [4], 100 to 200 nM; on HER2 S310F [5], 50 to 100 nM; at EGFR V3 [6] it was 100 to 200 nM. Besides, the results for the IC50 on EGFR WT [7] and at HER2 YVMA [8] were 200 to 300 nM and 500 to 1000 nM, respectively.

With `C=CC(=O)Nc1cc2c(Nc3cc(Cl)c(OCc4cccc(F)c4)cc3F)ncnc2cc1OCCN1CC(OC)C1` [compound 134], the IC50 at EGFR WT [1] lay in the range of 200 to 300 nM; on HER2 YVMA [2], 300 to 500 nM; at HER2 S310F [3], 30 to 50 nM; on EGFR V3 [4], 50 to 100 nM; on HER2 S310F [5], 30 to 50 nM; on EGFR V3 [6], 50 to 100 nM. Besides, the IC50 at EGFR WT [7] was 200 to 300 nM; on HER2 YVMA [8] it was 300 to 500 nM.

In the case of `C=CC(=O)Nc1cc2c(Nc3ccc(OCc4cccc(C)n4)c(Cl)c3)ncnc2cc1OCCN1CC(OC)C1` [compound 135], the IC50 lay within 300 to 500 nM on EGFR WT [1]; 300 to 500 nM on HER2 YVMA [2]; 100 to 200 nM on HER2 S310F [3]; 50 to 100 nM on EGFR V3 [4]; 100 to 200 nM on HER2 S310F [5]; 50 to 100 nM on EGFR V3 [6]. The IC50 at EGFR WT [7] and at HER2 YVMA [8] was 300 to 500 nM throughout.

Consider `CC#CC(=O)Nc1cc2c(Nc3cc(Cl)c(OCc4cccc(F)c4)cc3F)ncnc2cc1OCCCN1CC(OC)C1` [compound 136, N-(4-((5-chloro-2-fluoro-4-((3-fluorobenzyl)oxy)phenyl)amino)-7-(3-(3-methoxyazetidin-1-yl)propoxy)quinazolin-6-yl)but-2-ynamide], for which the IC50 at EGFR WT [1] is 100 to 200 nM; at HER2 YVMA [2], 100 to 200 nM; on HER2 S310F [3], 30 to 50 nM; on EGFR V3 [4], 100 to 200 nM; at HER2 S310F [5], 30 to 50 nM; at EGFR V3 [6], 100 to 200 nM. The IC50 at EGFR WT [7] and at HER2 YVMA [8] was 100 to 200 nM throughout.

Turning to `C=CC(=O)Nc1cc2c(Nc3ccc(OCc4cccc(C)n4)c(Cl)c3)ncnc2cc1OCCN1CCN(C)CC1` [compound 137], the IC50 at EGFR WT [1] was 200 to 300 nM; at HER2 YVMA [2] it was 300 to 500 nM; on HER2 S310F [3] it was 50 to 100 nM; at EGFR V3 [4], 50 to 100 nM; at HER2 S310F [5], 50 to 100 nM; on EGFR V3 [6] it was 50 to 100 nM. Further, the IC50 lay within 200 to 300 nM on EGFR WT [7] and 300 to 500 nM at HER2 YVMA [8].

With `C=CC(=O)Nc1cc2c(Nc3ccc(OCc4cccc(C)n4)c(Cl)c3)ncnc2cc1OCCCN1CC(OC)C1` [compound 138], the IC50 on EGFR WT [1] lay in the range of 100 to 200 nM; on HER2 YVMA [2], 50 to 100 nM; on HER2 S310F [3], 30 to 50 nM; on EGFR V3 [4], 50 to 100 nM; at HER2 S310F [5] it was 30 to 50 nM; on EGFR V3 [6] it was 50 to 100 nM. The IC50 on EGFR WT [7] was in the range of 100 to 200 nM; on HER2 YVMA [8], 50 to 100 nM.

In the case of `C=CC(=O)Nc1cc2c(Nc3ccc(OCc4cccc(F)c4)c(Cl)c3)ncnc2cc1OCCN1CC2CCC(C1)O2` [compound 139], the IC50 on EGFR WT [1] is 500 to 1000 nM; on HER2 YVMA [2], 100 to 200 nM; at HER2 S310F [3], 30 to 50 nM; at EGFR V3 [4], 100 to 200 nM; at HER2 S310F [5], 30 to 50 nM; at EGFR V3 [6], 100 to 200 nM. Also, the values for the IC50 at EGFR WT [7] and at HER2 YVMA [8] were 500 to 1000 nM and 100 to 200 nM, respectively.

Consider `C=CC(=O)Nc1cc2c(Nc3ccc(OCc4cccc(C)n4)c(Cl)c3)ncnc2cc1O[C@@H]1CCN(C)C1` [compound 140], for which the IC50 was in the range of 300 to 500 nM at EGFR WT [1]; 300 to 500 nM on HER2 YVMA [2]; 100 to 200 nM on HER2 S310F [3]; 100 to 200 nM on EGFR V3 [4]; 100 to 200 nM at HER2 S310F [5]; 100 to 200 nM on EGFR V3 [6]. The IC50 on EGFR WT [7] and on HER2 YVMA [8] was 300 to 500 nM in each case.

Take `C=CC(=O)Nc1cc2c(Nc3ccc(OCc4cccc(F)c4)c(Cl)c3)ncnc2cc1O[C@@H]1CCN(C)C1` [compound 141]: the IC50 on EGFR WT [1] lay within 100 to 200 nM; on HER2 YVMA [2], 300 to 500 nM; at HER2 S310F [3] it was 30 to 50 nM; at EGFR V3 [4] it was 100 to 200 nM; on HER2 S310F [5], 30 to 50 nM; on EGFR V3 [6], 100 to 200 nM. The IC50 on EGFR WT [7] fell in the range of 100 to 200 nM; on HER2 YVMA [8] it was 300 to 500 nM.

For `C=CC(=O)Nc1cc2c(Nc3ccc(OCc4ccnc(C)c4)c(Cl)c3)ncnc2cc1OCCN1CCOCC1` [compound 142], the IC50 on EGFR WT [1] was 500 to 1000 nM; at HER2 YVMA [2], greater than 1000 nM; on HER2 S310F [3], 300 to 500 nM; on EGFR V3 [4], 100 to 200 nM; at HER2 S310F [5], 300 to 500 nM; on EGFR V3 [6], 100 to 200 nM. Besides, the figures for the IC50 on EGFR WT [7] and on HER2 YVMA [8] were 500 to 1000 nM and greater than 1000 nM, respectively.

For the molecule `C=CC(=O)Nc1cc2c(Nc3ccc(OCc4cccc(F)c4)c(Cl)c3)ncnc2cc1OCCN1CC(OC)C1` [compound 143], the IC50 on EGFR WT [1] was in the range of 200 to 300 nM; on HER2 YVMA [2], 100 to 200 nM; on HER2 S310F [3] it was 30 to 50 nM; on EGFR V3 [4] it was 50 to 100 nM; on HER2 S310F [5], 30 to 50 nM; at EGFR V3 [6], 50 to 100 nM. The IC50 at EGFR WT [7] was in the range of 200 to 300 nM; on HER2 YVMA [8] it was 100 to 200 nM.
